Test results reported in patent EP1931657B1, “NOVEL HIGH AFFINITY QUINOLINE-BASED KINASE LIGANDS” (Merck Sharp & Dohme Corp., priority 2005, dated 2007).

Each compound was assayed against CDK-2 (Homo sapiens, UniProt P24941) (assay: CDK-2 inhibition, fluorescence polarization displacement assay).
Experimental: Binding assays were performed in a 384 well Costar NBS coated plate. […] The concentration of BMS-Alexa Fluor647 was 50 nM. Serial dilutions of compounds were added to 12 wells. The final buffer concentration was 10 mM Hepes, pH 7.5, 150 mM NaCl, and 1 mM DTT. Samples were incubated at room temperature for 15 minutes and then read in an Analyst HT instrument using an excitation and emission wavelength of 580 and 680 nm, respectively.

IC50 [µM]	SMILES
> 40	COC[C@H](Cc1ccc(O)cc1)NC(=O)c1cc(C(=O)O)c2cc(COc3ccccn3)ccc2n1 [Compound 207]
> 40	COC(=O)[C@H](Cc1ccc(O)cc1)NC(=O)c1cc(C(=O)O)c2cc(-c3cncnc3)ccc2n1 [Compound 226]
1 to 40	COC[C@H](Cc1ccc(O)cc1)NC(=O)c1cc(NS(=O)(=O)C(C)(C)C)c2cc(-c3cccc(N4CCOCC4)c3)ccc2n1 [Compound 136]
< 1	CN(C)C(=O)[C@H](Cc1ccc(O)cc1)NC(=O)c1cc(C(=O)O)c2cc(/C=C/c3ccc(Cl)cc3)ccc2n1 [Compound 34]
< 1	COC(=O)[C@H](Cc1ccc(O)cc1)NC(=O)c1cc(C(=O)O)c2cc(-c3ccc(F)c(C)c3)ccc2n1 [Compound 41]
> 40	COC(=O)[C@H](Cc1ccc(O)cc1)NC(=O)c1cc(C(=O)O)c2cc(Cc3ccccc3)ccc2n1 [Compound 159]
< 1	COC(=O)[C@H](Cc1ccc(O)cc1)NC(=O)c1cc(C(=O)O)c2cc(-c3ccc(Cl)c(Cl)c3)ccc2n1 [Compound 69]
> 40	COC[C@H](Cc1ccc(O)cc1)NC(=O)c1cc(C(=O)O)c2cc(C#CCCCCN)ccc2n1 [Compound 203]
< 1	CCCC(Cc1ccc(O)cc1)NC(=O)c1cc(C(=O)O)c2cc(-c3cccc(C(F)(F)F)c3)ccc2n1 (stereo not drawn) [Compound 54]
1 to 40	NC[C@H](Cc1ccc(O)cc1)NC(=O)c1cc(C(=O)O)c2cc(CCc3ccc(Cl)cc3)ccc2n1 [Compound 97]
> 40	COC(=O)[C@H](Cc1cccnc1)NC(=O)c1cc(C(=O)O)c2cc(-c3cccc(C(F)(F)F)c3)ccc2n1 [Compound 164]
> 40	COC(=O)[C@H](Cc1ccc(O)cc1)NC(=O)c1cc(C(=O)OCC(N)C(C)C)c2cc(-c3cccs3)ccc2n1 (stereo partly drawn) [Compound 228]
> 40	COC(=O)[C@H](Cc1ccc(O)cc1)NC(=O)c1cc(C(=O)OCCO)c2cc(-c3cccs3)ccc2n1 [Compound 230]
1 to 40	COC(=O)[C@H](Cc1ccc(O)cc1)NC(=O)c1cc(C(=O)O)c2cc(-c3ccc(Cl)c(F)c3)ccc2n1 [Compound 92]
1 to 40	COC[C@H](Cc1ccc(O)cc1)NC(=O)c1cc(C(=O)O)c2cc(-c3cccc(COc4cccnc4)c3)ccc2n1 [Compound 141]
> 40	COC(=O)C(Cc1ccc(O)cc1)NC(=O)c1cc(C(=O)NC(C)(C)C(=O)O)c2cc(-c3cccs3)ccc2n1 (stereo not drawn) [Compound 154]
< 1	O=C(N[C@@H](Cc1ccc(O)cc1)C(=O)NC1CC1)c1cc(C(=O)O)c2cc(/C=C/c3ccc(Cl)cc3)ccc2n1 [Compound 44]
< 1	COC(=O)[C@H](Cc1ccc(O)cc1)NC(=O)c1cc(C(=O)O)c2cc(/C=C/c3ccc(F)cc3)ccc2n1 [Compound 6]
